Data published in US20250171459A1, “2-METHYL-4',5'-DIHYDROSPIRO[PIPERIDINE-4,7'-THIENO[2,3-C]PYRAN] DERIVATIVES AS INHIBITORS OF APOL1 AND METHODS OF USING SAME” (Vertex Pharmaceuticals Incorporated, priority 2022, published 2025).

Target: T1, APOL1 (Homo sapiens, UniProt O14791)
T1 sequence (O14791 1-398 S342G/I384M): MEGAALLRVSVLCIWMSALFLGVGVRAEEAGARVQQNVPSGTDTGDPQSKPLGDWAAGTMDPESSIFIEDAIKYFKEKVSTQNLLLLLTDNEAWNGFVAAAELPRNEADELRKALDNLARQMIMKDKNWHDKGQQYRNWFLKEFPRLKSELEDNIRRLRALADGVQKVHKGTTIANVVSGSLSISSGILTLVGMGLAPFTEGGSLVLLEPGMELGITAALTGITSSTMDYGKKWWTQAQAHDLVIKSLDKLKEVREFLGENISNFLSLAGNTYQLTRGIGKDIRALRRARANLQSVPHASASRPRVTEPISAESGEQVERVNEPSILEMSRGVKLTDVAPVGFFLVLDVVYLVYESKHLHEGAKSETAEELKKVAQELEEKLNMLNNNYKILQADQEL
Experiment: MultiTox-Fluor Multiplex Cytotoxicity Assay in tet-inducible APOL1 T-REx-HEK293 cells (cell rescue, ratio of dead to live cells)
Type: cell-based
Settings: tet-inducible transgenic APOL1 T-REx-HEK293 cell lines, 50 ng/mL tet, 24 hours; read-out: IP50 (i.e., IC50 for cell proliferation)
Summary of the method: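 T-REx-HEK293 cells with tet-inducible APOL1 were treated with compound (10 μM top, 10-point 3-fold dilution, duplicate) plus 50 ng/mL tetracycline for 24 h at 37° C, in DMEM with 2% tet-free FBS. MultiTox-Fluor protease signals gave a dead/live ratio, normalized to no tet (100% viability) and tet alone (0%).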

CCc1cc2c(s1)CCO[C@@]21CCN(C[C@H]2C[C@@H](NC(=O)C3(O)CCC3)C2)[C@@H](C)C1 [Compound 330]
IC50: < 100 nM

CCc1cc2c(s1)CCO[C@@]21CCN(C[C@H]2C[C@@H](NC(=O)C3CC(C(F)(F)F)C3)C2)[C@@H](C)C1 (some centres unmarked) [Compound 331]
IC50: 100 to 500 nM

CCc1cc2c(s1)CCO[C@@]21CCN(C[C@H]2C[C@@H](NC(=O)C(O)C3CC3)C2)[C@@H](C)C1 (some centres unmarked) [Compound 333]
IC50: < 100 nM

CCc1cc2c(s1)CCO[C@@]21CCN(C[C@H]2C[C@@H](NC(=O)CC#N)C2)[C@@H](C)C1 [Compound 334]
IC50: 100 to 500 nM

CCc1cc2c(s1)CCO[C@@]21CCN(C[C@H]2C[C@@H](NC(=O)C3(O)CC3)C2)[C@@H](C)C1 [Compound 335]
IC50: < 100 nM

CCc1cc2c(s1)CCO[C@@]21CCN(C[C@H]2C[C@@H](NC(=O)C(C)(C)C#N)C2)[C@@H](C)C1 [Compound 336]
IC50: 100 to 500 nM

CCc1cc2c(s1)CCO[C@@]21CCN(C[C@H]2C[C@@H](NC(=O)CN3CCc4ccccc43)C2)[C@@H](C)C1 [Compound 337]
IC50: < 100 nM

CCc1cc2c(s1)CCO[C@@]21CCN(C[C@H]2C[C@@H](NC(=O)CC3CC(F)(F)C3)C2)[C@@H](C)C1 [Compound 338]
IC50: < 100 nM

CCc1cc2c(s1)CCO[C@@]21CCN(C[C@H]2C[C@@H](NC(=O)C(O)C(F)(F)F)C2)[C@@H](C)C1 (some centres unmarked) [Compound 339]
IC50: < 100 nM

CCc1cc2c(s1)CCO[C@@]21CCN(C[C@H]2C[C@@H](NC(=O)c3ccncc3C)C2)[C@@H](C)C1 [Compound 340]
IC50: < 100 nM

CCc1cc2c(s1)CCO[C@@]21CCN(C[C@H]2C[C@@H](NC(=O)C(C)S(C)(=O)=O)C2)[C@@H](C)C1 (some centres unmarked) [Compound 341]
IC50: < 100 nM

CCc1cc2c(s1)CCO[C@@]21CCN(C[C@H]2C[C@@H](NC(=O)CS(=O)(=O)NC)C2)[C@@H](C)C1 [Compound 342]
IC50: < 100 nM

CCc1cc2c(s1)CCO[C@@]21CCN(C[C@H]2C[C@@H](NC(=O)CS(C)(=O)=O)C2)[C@@H](C)C1 [Compound 343]
IC50: < 100 nM

CCc1cc2c(s1)CCO[C@@]21CCN(C[C@H]2C[C@@H](NC(=O)C3CC(C)(O)C3)C2)[C@@H](C)C1 (some centres unmarked) [Compound 344]
IC50: < 100 nM

CCc1cc2c(s1)CCO[C@@]21CCN(C[C@H]2C[C@@H](NC(=O)c3ncccc3O)C2)[C@@H](C)C1 [Compound 345]
IC50: 100 to 500 nM

CCc1cc2c(s1)CCO[C@@]21CCN(C[C@H]2C[C@@H](NC(=O)CC(C)(C)O)C2)[C@@H](C)C1 [Compound 346]
IC50: < 100 nM

CCc1cc2c(s1)CCO[C@@]21CCN(C[C@H]2C[C@@H](NC(=O)c3nnc(C)o3)C2)[C@@H](C)C1 [Compound 347]
IC50: 100 to 500 nM

CCc1cc2c(s1)CCO[C@@]21CCN(C[C@H]2C[C@@H](NC(=O)COC)C2)[C@@H](C)C1 [Compound 348]
IC50: 100 to 500 nM

CCc1cc2c(s1)CCO[C@@]21CCN(C[C@H]2C[C@@H](NC(=O)c3ccc(=O)[nH]n3)C2)[C@@H](C)C1 [Compound 349]
IC50: < 100 nM

CCc1cc2c(s1)CCO[C@@]21CCN(C[C@H]2C[C@@H](NC(=O)C3(C(N)=O)CC3)C2)[C@@H](C)C1 [Compound 350]
IC50: 100 to 500 nM

CCc1cc2c(s1)CCO[C@@]21CCN(C[C@H]2C[C@@H](NC(=O)CO)C2)[C@@H](C)C1 [Compound 351]
IC50: 100 to 500 nM

CCc1cc2c(s1)CCO[C@@]21CCN(C[C@H]2C[C@@H](NC(=O)CC3CS(=O)(=O)C3)C2)[C@@H](C)C1 [Compound 352]
IC50: < 100 nM

CCc1cc2c(s1)CCO[C@@]21CCN(C[C@H]2C[C@@H](NC(=O)CNS(=O)(=O)CC)C2)[C@@H](C)C1 [Compound 353]
IC50: < 100 nM

CCc1cc2c(s1)CCO[C@@]21CCN(C[C@H]2C[C@@H](NC(=O)Cn3cncn3)C2)[C@@H](C)C1 [Compound 354]
IC50: 100 to 500 nM

CCc1cc2c(s1)CCO[C@@]21CCN(C[C@H]2C[C@@H](NC(=O)C3CCN(C(C)=O)CC3)C2)[C@@H](C)C1 [Compound 355]
IC50: < 100 nM

CCc1cc2c(s1)CCO[C@@]21CCN(C[C@H]2C[C@@H](NC(=O)CCS(C)(=O)=O)C2)[C@@H](C)C1 [Compound 356]
IC50: < 100 nM

CCc1cc2c(s1)CCO[C@@]21CCN(C[C@H]2C[C@@H](NC(=O)C3(O)CC(O)C3)C2)[C@@H](C)C1 (some centres unmarked) [Compound 357]
IC50: < 100 nM

CCc1cc2c(s1)CCO[C@@]21CCN(C[C@H]2C[C@@H](NC(=O)c3ccc4[nH]nnc4c3)C2)[C@@H](C)C1 [Compound 358]
IC50: < 100 nM

CCc1cc2c(s1)CCO[C@@]21CCN(C[C@H]2C[C@@H](NC(=O)C3(C)COC3)C2)[C@@H](C)C1 [Compound 359]
IC50: 100 to 500 nM

CCc1cc2c(s1)CCO[C@@]21CCN(C[C@H]2C[C@@H](NC(=O)C(C)(C)N)C2)[C@@H](C)C1 [Compound 360]
IC50: 100 to 500 nM

CCc1cc2c(s1)CCO[C@@]21CCN(C[C@H]2C[C@@H](NC(=O)C3CNC(=O)O3)C2)[C@@H](C)C1 (some centres unmarked) [Compound 361]
IC50: 100 to 500 nM

CCc1cc2c(s1)CCO[C@@]21CCN(C[C@H]2C[C@@H](NC(=O)C3CC(=O)N(C)C3)C2)[C@@H](C)C1 (some centres unmarked) [Compound 362]
IC50: 100 to 500 nM

CCc1cc2c(s1)CCO[C@@]21CCN(C[C@H]2C[C@@H](NC(=O)c3cc(CO)n[nH]3)C2)[C@@H](C)C1 [Compound 363]
IC50: < 100 nM

CCc1cc2c(s1)CCO[C@@]21CCN(C[C@H]2C[C@@H](NC(=O)CNS(C)(=O)=O)C2)[C@@H](C)C1 [Compound 364]
IC50: 100 to 500 nM

CCc1cc2c(s1)CCO[C@@]21CCN(C[C@H]2C[C@@H](NC(=O)C(O)CO)C2)[C@@H](C)C1 (some centres unmarked) [Compound 365]
IC50: 100 to 500 nM

CCc1cc2c(s1)CCO[C@@]21CCN(C[C@H]2C[C@@H](NC(=O)CCN3CCCC3=O)C2)[C@@H](C)C1 [Compound 366]
IC50: 100 to 500 nM

CCc1cc2c(s1)CCO[C@@]21CCN(C[C@H]2C[C@@H](NC(=O)C3CC3C(=O)N(C)C)C2)[C@@H](C)C1 (some centres unmarked) [Compound 367]
IC50: 100 to 500 nM

CCc1cc2c(s1)CCO[C@@]21CCN(C[C@H]2C[C@@H](NC(=O)[C@H]3CCCO3)C2)[C@@H](C)C1 [Compound 368]
IC50: 100 to 500 nM

CCc1cc2c(s1)CCO[C@@]21CCN(C[C@H]2C[C@@H](NC(=O)[C@@H]3CCCO3)C2)[C@@H](C)C1 [Compound 369]
IC50: 100 to 500 nM

CCc1cc2c(s1)CCO[C@@]21CCN(C[C@H]2C[C@@H](NC(=O)C(C)(O)C(F)(F)F)C2)[C@@H](C)C1 (some centres unmarked) [Compound 370]
IC50: 100 to 500 nM

CCCOC(=O)N[C@H]1C[C@@H](CN2CC[C@]3(C[C@@H]2C)OCCc2sc(CC)cc23)C1 [Compound 371]
IC50: < 100 nM

CCc1cc2c(s1)CCO[C@@]21CCN(C[C@H]2C[C@@H](NC(=O)Oc3ccccc3F)C2)[C@@H](C)C1 [Compound 372]
IC50: 500 to 1000 nM

CCc1cc2c(s1)CCO[C@@]21CCN(C[C@H]2C[C@@H](NC(=O)OCC(C)C)C2)[C@@H](C)C1 [Compound 373]
IC50: 100 to 500 nM

CCc1cc2c(s1)CCO[C@@]21CCN(C[C@H]2C[C@@H](NC(=O)OCCOC)C2)[C@@H](C)C1 [Compound 374]
IC50: 100 to 500 nM

CCOC(=O)N[C@H]1C[C@@H](CN2CC[C@]3(C[C@@H]2C)OCCc2sc(CC)cc23)C1 [Compound 375]
IC50: < 100 nM

CCc1cc2c(s1)CCO[C@@]21CCN(C[C@H]2C[C@@H](NC(=O)OC(C)C)C2)[C@@H](C)C1 [Compound 376]
IC50: < 100 nM

CCc1cc2c(s1)CCO[C@@]21CCN(C[C@H]2C[C@@H](NC(=O)Oc3ccc(F)cc3)C2)[C@@H](C)C1 [Compound 377]
IC50: < 100 nM

CCc1cc2c(s1)CCO[C@@]21CCN(C[C@H]2C[C@@H](NC(=O)OCC3CC3)C2)[C@@H](C)C1 [Compound 378]
IC50: 100 to 500 nM

CCc1cc2c(s1)CCO[C@@]21CCN(C[C@H]2C[C@@H](NC(=O)Oc3ccc(OC)cc3)C2)[C@@H](C)C1 [Compound 379]
IC50: < 100 nM

CCc1cc2c(s1)CCO[C@@]21CCN(C[C@H]2C[C@@H](NC(=O)OCc3ccccc3)C2)[C@@H](C)C1 [Compound 380]
IC50: 100 to 500 nM

CCc1cc2c(s1)CCO[C@@]21CCN(C[C@H]2C[C@@H](NC(=O)OCc3ccccc3Cl)C2)[C@@H](C)C1 [Compound 381]
IC50: 100 to 500 nM

CCc1cc2c(s1)CCO[C@@]21CCN(C[C@H]2C[C@@H](NC(=O)Oc3ccc(Cl)cc3)C2)[C@@H](C)C1 [Compound 382]
IC50: < 100 nM

CCc1cc2c(s1)CCO[C@@]21CCN(C[C@H]2C[C@@H](NC(=O)OCC3CCCCC3)C2)[C@@H](C)C1 [Compound 383]
IC50: 100 to 500 nM

CCc1cc2c(s1)CCO[C@@]21CCN(C[C@H]2C[C@@H](NC(C)=O)C2)[C@@H](C)C1 [Compound 384]
IC50: 100 to 500 nM

CCc1cc2c(s1)CCO[C@@]21CCN(CC2CC(NC(=O)CCCCCOCCOCCOCCOCCCCCCCl)C2)[C@@H](C)C1 (stereo partly drawn) [Compound 385, 6-[2-[2-[2-(6-chlorohexoxy)ethoxy]ethoxy]ethoxy]-N-[3-[[(2′S,4R)-2-ethyl-2′-methyl-spiro[6,7-dihydrothieno[3,2-c]pyran-4,4′-piperidine]-1′-yl]methyl]cyclobutyl]hexanamide]
IC50: 100 to 500 nM

CCc1cc2c(s1)CCO[C@@]21CCN(C[C@H]2C[C@@H](NC(=O)OCCOCCOCCOC(=O)NCCOCCOCCCCCCCl)C2)[C@@H](C)C1 [Compound 386, 2-[2-[2-[[3-[[(2′S,4R)-2-ethyl-2′-methyl-spiro[6,7-dihydrothieno[3,2-c]pyran-4,4′-piperidine]-1′-yl]methyl]cyclobutyl]carbamoyloxy]ethoxy]ethoxy]ethyl N-[2-[2-(6-chlorohexoxy)ethoxy]ethyl]carbamate]
IC50: < 100 nM
